Legend:
σ1 receptor = σ1 receptor (Homo sapiens, UniProt Q99720); format: binding; conditions: 10 μM competing compound, 1 nM [125I]-IAF, RT4 cell membranes
σ2 receptor [1] = biological target: σ2 receptor (Homo sapiens, UniProt Q5BJF2); format: binding; conditions: 10 μM competing compound, 1 nM [125I]-IAF, RT4 cell membranes
σ2 receptor [2] = biological target: T1, σ2 receptor (Rattus norvegicus, UniProt Q5U3Y7); experiment: Competitive σ2 receptor radioligand binding
T1 sequence (Q5U3Y7 1-176): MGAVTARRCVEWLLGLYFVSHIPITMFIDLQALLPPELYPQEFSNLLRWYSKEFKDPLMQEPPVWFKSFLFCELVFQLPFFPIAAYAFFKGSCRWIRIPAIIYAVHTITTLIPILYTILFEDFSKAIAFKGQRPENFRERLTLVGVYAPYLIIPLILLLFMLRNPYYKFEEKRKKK

Sequence of σ1 receptor (Q99720 whole entry): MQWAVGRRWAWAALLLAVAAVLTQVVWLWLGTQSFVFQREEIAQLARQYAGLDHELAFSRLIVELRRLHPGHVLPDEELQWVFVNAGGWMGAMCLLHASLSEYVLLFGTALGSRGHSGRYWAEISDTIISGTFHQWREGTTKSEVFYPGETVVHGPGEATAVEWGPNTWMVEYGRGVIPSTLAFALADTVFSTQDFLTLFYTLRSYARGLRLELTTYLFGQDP
Sequence of σ2 receptor (Homo sapiens, UniProt Q5BJF2) (Q5BJF2 whole entry): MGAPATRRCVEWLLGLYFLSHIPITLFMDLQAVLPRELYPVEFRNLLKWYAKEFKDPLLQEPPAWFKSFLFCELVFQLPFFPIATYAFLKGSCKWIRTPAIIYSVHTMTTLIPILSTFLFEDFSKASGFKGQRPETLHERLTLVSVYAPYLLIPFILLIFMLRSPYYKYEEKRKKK

Row | Blocking of σ1 receptor photolabeling by [125I]-IAF (σ1 receptor) | Increase of σ2 affinity in comparison to compound 5h (σ2 receptor [2]; 5g compared to 5h) [fold] | Selectivity for the σ2 over the σ1 receptor (σ2 receptor [2]) | Improvement of σ2 selectivity relative to the σ1 receptor, versus 5f (σ2 receptor [2]; 5e compared to 5f) [fold] | Increase of σ2 affinity versus 5f (σ2 receptor [2]; 5e compared to 5f) [fold] | SMILES | Blocking of σ2 receptor photolabeling by [125I]-IAF (σ2 receptor [1])
1 | diminished both bands |  |  |  |  | O=C1c2ccccc2C(=O)N1CCCCN1CCc2ccc([N+](=O)[O-])cc2C1 [Compound 3b, 2-(4-(7-Nitro-3,4-dihydroisoquinoline-2(1H)-yl)butyl)isoindoline-1,3-dione] | diminished both bands
2 |  | 4.5 |  |  |  | COc1c(I)ccc(C(=O)NCCCCN2CCc3ccc([N+](=O)[O-])cc3C2)c1O [Compound 5g, 2-Hydroxy-4-iodo-3-methoxy-N-(4-(7-nitro-3,4-dihydroisoquinoline-2(1H)-yl)butyl)benzamide] | 
3 | left σ1 labeling essentially unaltered |  | ~ 400 fold | 631 | 500 | COc1ccc(C(=O)NCCCCN2CCc3ccc([N+](=O)[O-])cc3C2)c(OC)c1OC [Compound 5e, 2,3,4-Trimethoxy-N-(4-(7-nitro-3,4-dihydroisoquinoline-2(1H)-yl)butyl)benzamide] | eliminated σ2 labeling

The remaining lines, values behind:

Row | SMILES | Blocking of σ1 receptor photolabeling by [125I]-IAF (σ1 receptor) | Increase of σ2 affinity in comparison to compound 5h (σ2 receptor [2]; 5g compared to 5h) [fold] | Selectivity for the σ2 over the σ1 receptor (σ2 receptor [2]) | Improvement of σ2 selectivity relative to the σ1 receptor, versus 5f (σ2 receptor [2]; 5e compared to 5f) [fold] | Increase of σ2 affinity versus 5f (σ2 receptor [2]; 5e compared to 5f) [fold] | Blocking of σ2 receptor photolabeling by [125I]-IAF (σ2 receptor [1])
4 | COc1cccc(C(=O)NCCCCN2CCc3ccc([N+](=O)[O-])cc3C2)c1OC [Compound 5f, 2,3-Dimethoxy-N-(4-(7-nitro-3,4-dihydroisoquinoline-2(1H)-yl)butyl)benzamide] | did not block the labeling of either receptor |  |  |  |  | did not block the labeling of either receptor
5 | O=C(CCCN1CCC(O)(c2ccc(Cl)cc2)CC1)c1ccc(F)cc1 [haloperidol, reference compound] |  |  |  |  |  | blocked photolabeling
